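Cells were grown in 96-well plates and exposed to each compound for 48 hours at five concentrations; endpoints were interpolated linearly between bracketing concentrations, or set to the highest concentration if not reached. Here, GI50 denotes the concentration required for 50% inhibition of growth. Definition used: TGI = concentration required for complete inhibition of growth.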
How the values were obtained:
Assay in all cases: inhibition of tumour cell growth, NCI panel, 48 h
[1] = test system: 786-0 renal
[2] = test system: BT-549 breast
[3] = test system: HCT-15 colon
[4] = test system: HL-60(TB) leukemia
[5] = test system: HOP-62 NSCLC
[6] = test system: OVCAR-3 ovarian
[7] = test system: RPMI-8226 leukemia
[8] = test system: SN12C renal
[9] = test system: SNB-75 CNS
[10] = test system: SW-620 colon

| Structure (SMILES) | GI50 [1] | TGI [1] | GI50 [2] | TGI [2] | GI50 [3] | TGI [3] | GI50 [4] | TGI [4] | GI50 [5] | TGI [5] | GI50 [6] | TGI [6] | GI50 [7] | TGI [7] | GI50 [8] | TGI [8] | GI50 [9] | TGI [9] | GI50 [10] | TGI [10] |
| --- | --- | --- | --- | --- | --- | --- | --- | --- | --- | --- | --- | --- | --- | --- | --- | --- | --- | --- | --- | --- |
| O=P(Oc1ccccc1)(Oc1ccccc1)C(O)c1ccccc1 (centres undefined) | > 100 µM | > 100 µM | > 100 µM | > 100 µM | > 100 µM | > 100 µM | 60.7 µM | > 100 µM | 39.3 µM | > 100 µM | 43.9 µM | > 100 µM | 33.3 µM | > 100 µM | > 100 µM | > 100 µM | 34.4 µM | > 100 µM | > 100 µM | > 100 µM |
| Cc1cc(S(=O)(=O)Nc2nnc(-c3ccco3)c(-c3ccco3)n2)c(SCc2ccccc2)cc1Cl | 38.8 µM | > 100 µM | 25.3 µM | 50.2 µM | 21.1 µM | 43.3 µM | 24.8 µM | 83.1 µM | 25.5 µM | 53.3 µM | 26.2 µM | 50.9 µM | 18.4 µM | 61.4 µM | – | – | 32.1 µM | 56.2 µM | 23 µM | 47.2 µM |
| COc1ccc(/C=C/C(=O)/C=C(/C=C/c2ccc(OC)c(OC)c2)OB(F)F)cc1OC | 1.07 µM | 2.93 µM | 1.13 µM | 2.68 µM | 0.286 µM | 1.12 µM | 0.495 µM | 3.64 µM | 2.46 µM | 7.05 µM | 0.324 µM | 1.04 µM | 0.427 µM | 2.81 µM | – | – | 1.02 µM | 8.06 µM | 0.373 µM | 2.33 µM |
| O=C(O)CSCC(=O)c1ccccc1 | – | > 100 µM | – | > 100 µM | – | > 100 µM | – | > 100 µM | – | > 100 µM | – | > 100 µM | – | > 100 µM | – | > 100 µM | – | > 100 µM | – | > 100 µM |
| CN(C)CCCNC(=O)c1cc(NC(=O)c2cc(NC(=O)CCCN3c4ccccc4C=Cc4ccccc43)cn2C)cn1C | 11.4 µM | > 100 µM | 4.19 µM | 69.8 µM | 25.7 µM | 82.7 µM | 14.3 µM | 41.4 µM | 10.2 µM | > 100 µM | 13.4 µM | 54.2 µM | 2.29 µM | 6.21 µM | 13.8 µM | 43 µM | 13.6 µM | 62.9 µM | 3.96 µM | > 100 µM |
| Clc1ccc(Nc2ccnc(NCCNc3ccnc4cc(Cl)ccc34)n2)cc1 | 1.62 µM | 3.44 µM | 1.5 µM | 3.2 µM | 1.03 µM | 2.36 µM | 2.09 µM | 4.92 µM | 1.27 µM | 2.66 µM | 1.36 µM | 2.69 µM | 1.38 µM | 3.73 µM | 1.51 µM | 3.47 µM | 1.22 µM | 2.47 µM | 1.14 µM | 2.64 µM |
| O=c1oc2ccccc2c(Cl)c1Cl | 5.82 µM | 18.7 µM | 2.63 µM | 9.33 µM | 2.24 µM | 6.28 µM | 4.09 µM | 34.3 µM | 3.49 µM | 14.2 µM | 1.94 µM | 4.38 µM | 2.71 µM | 8.66 µM | 4.58 µM | 16.8 µM | 2.85 µM | 12.9 µM | 1.51 µM | 5.6 µM |
| O=C(Nc1cccc(NS(=O)(=O)c2ccc(F)cc2)c1)c1ccc(-c2ccccc2)cc1 | 3.69 µM | > 100 µM | 2.99 µM | 8.27 µM | 2.86 µM | 18.3 µM | 3.37 µM | 12.9 µM | 4.66 µM | 37.2 µM | 2.99 µM | 15.3 µM | 2.31 µM | 11.4 µM | 2.96 µM | 11.8 µM | 6.07 µM | 44 µM | 4.04 µM | 35.4 µM |
| O=C(O)C1CCCN1Cc1c[nH]c2ccccc12 (centres undefined) | – | > 100 µM | – | > 100 µM | – | > 100 µM | – | > 100 µM | – | > 100 µM | – | > 100 µM | – | > 100 µM | – | > 100 µM | – | > 100 µM | – | > 100 µM |
| COc1ccc(/C=C\c2cc(OC)c(OC)c(OC)c2)cc1NC(=O)[C@@H](N)CO | 0.0188 µM | > 40.3 µM | < 0.0139 µM | 0.085 µM | 0.0165 µM | > 100 µM | < 0.0178 µM | 0.758 µM | 0.0267 µM | > 100 µM | < 0.0122 µM | 0.0415 µM | 0.0276 µM | 20.8 µM | 0.0468 µM | > 100 µM | < 0.0128 µM | > 66.7 µM | 0.027 µM | > 100 µM |
| Nc1nc(SCC(=O)O)[nH]c(=O)c1N | – | > 100 µM | – | > 100 µM | – | > 100 µM | – | > 100 µM | – | > 100 µM | – | > 100 µM | – | 99.7 µM | – | 30.5 µM | – | > 100 µM | – | > 100 µM |
| Cc1c(C(=O)N/N=C/c2ccc(O)cc2)nnn1-c1ccnc2c(C(F)(F)F)cccc12 | 44.4 µM | > 100 µM | 41.6 µM | > 100 µM | > 100 µM | > 100 µM | > 100 µM | > 100 µM | 17.5 µM | 37 µM | > 100 µM | > 100 µM | > 100 µM | > 100 µM | 16.3 µM | 83.3 µM | 19.1 µM | 40 µM | > 100 µM | > 100 µM |
| COc1cccc(-c2nc(-c3ccc(NS(=O)(=O)c4ccccc4)cc3)[nH]c2-c2ccnc(Br)c2)c1 | 2.98 µM | > 100 µM | 2.72 µM | 9.21 µM | – | – | 2.86 µM | > 100 µM | 3.39 µM | > 100 µM | 3.03 µM | 17.7 µM | 2.49 µM | 8.31 µM | 3.03 µM | > 100 µM | 1.92 µM | > 100 µM | 2.83 µM | > 100 µM |
| C=C1C(=O)OC2C1C(OC(=O)/C(C)=C/C)CC(O)(CCl)C1C(OC(C)=O)C=C(C)C21O (centres undefined) | – | 32.9 µM | – | 22.8 µM | – | 21.7 µM | – | 9.39 µM | – | > 66 µM | – | 23.4 µM | – | 31.3 µM | – | 40.4 µM | – | 64.6 µM | – | 14 µM |

Reference: PubChem BioAssay (NCI)
